Source: paper PMC4843002, “Identification of pyrazolopyridazinones as PDEδ inhibitors” (Nature Communications, 2016)

What was measured:
5-HT (non-selective) = test: Cerep binding, agonist radioligand; conditions: 5 µM
[1] = system: Ca2+ channel (L, diltiazem site) (benzothiazepines); test: Cerep binding, antagonist radioligand; conditions: 5 µM
Y (non-selective) = test: Cerep binding, agonist radioligand; conditions: 5 µM
[2] = system: Ca2+ channel (L, dihydropyridine site); test: Cerep binding, antagonist radioligand; conditions: 5 µM
H2 (h) = target: T1, H2 (h) (Homo sapiens, UniProt P25021); test: Cerep binding, antagonist radioligand; conditions: read-out: % Inhibition of Control Specific Binding
T1 construct: purchased Eurofins Pharma Discovery Services (CEREP diversity panel)

Na+ channel (site 2) = test: Cerep binding, antagonist radioligand; conditions: 5 µM
B1 (h) = target: T2, B1 (h) (Homo sapiens, UniProt P46663); test: Cerep binding, agonist radioligand; conditions: read-out: % Inhibition of Control Specific Binding
T2 construct: purchased Eurofins Pharma Discovery Services (CEREP diversity panel)

CRF1 (h) = target: T3, CRF1 (h) (Homo sapiens, UniProt P34998); test: Cerep binding, agonist radioligand; conditions: read-out: % Inhibition of Control Specific Binding
T3 construct: purchased Eurofins Pharma Discovery Services (CEREP diversity panel)

CB2 (h) = target: T4, CB2 (h) (Homo sapiens, UniProt P34972); test: Cerep binding, agonist radioligand; conditions: read-out: % Inhibition of Control Specific Binding
T4 construct: purchased Eurofins Pharma Discovery Services (CEREP diversity panel)

PDE4D2 (h) = target: T5, PDE4D2 (h) (Homo sapiens, UniProt Q08499); test: Cerep enzyme and cell-based assays; type: biochemical; conditions: read-out: % Inhibition of Control Values
T5 construct: Eurofins Pharma Discovery Services (CEREP diversity panel, outsourced assay)

CB1 (h) = target: T6, CB1 (h) (Homo sapiens, UniProt P21554); test: Cerep binding, agonist radioligand; conditions: read-out: % Inhibition of Control Specific Binding
T6 construct: purchased Eurofins Pharma Discovery Services (CEREP diversity panel)

GR (h) = target: T7, GR (h) (Homo sapiens, UniProt P04150); test: Cerep binding, agonist radioligand; conditions: read-out: % Inhibition of Control Specific Binding
T7 construct: purchased Eurofins Pharma Discovery Services (CEREP diversity panel)

A3 (h) = target: T8, A3 (h) (Homo sapiens, UniProt P0DMS8); test: Cerep binding, agonist radioligand; conditions: read-out: % Inhibition of Control Specific Binding
T8 construct: purchased Eurofins Pharma Discovery Services (CEREP diversity panel)

[3] = system: Ca2+ channel (L, verapamil site) (phenylalkylamine); test: Cerep binding, antagonist radioligand; conditions: 5 µM
alpha 2 (non-selective) = test: Cerep binding, antagonist radioligand; conditions: 5 µM
MT1 (ML1A) (h) = target: T9, MT1 (ML1A) (h) (Homo sapiens, UniProt P48039); test: Cerep binding, agonist radioligand; conditions: read-out: % Inhibition of Control Specific Binding
T9 construct: purchased Eurofins Pharma Discovery Services (CEREP diversity panel)

EP2 (h) = target: T10, EP2 (h) (Homo sapiens, UniProt P43116); test: Cerep binding, agonist radioligand; conditions: read-out: % Inhibition of Control Specific Binding
T10 construct: purchased Eurofins Pharma Discovery Services (CEREP diversity panel)

PKCalpha (h) = target: T11, PKCalpha (h) (Homo sapiens, UniProt P17252); test: Cerep enzyme and cell-based assays; type: biochemical; conditions: read-out: % Inhibition of Control Values
T11 construct: Eurofins Pharma Discovery Services (CEREP diversity panel, outsourced assay)

PDE1B (h) = target: T12, PDE1B (h) (Homo sapiens, UniProt Q01064); test: Cerep enzyme and cell-based assays; type: biochemical; conditions: read-out: % Inhibition of Control Values
T12 construct: purchased Eurofins Pharma Discovery Services (CEREP diversity panel)

D3 (h) = target: T13, D3 (h) (Homo sapiens, UniProt P35462); test: Cerep binding, antagonist radioligand; conditions: read-out: % Inhibition of Control Specific Binding
T13 construct: purchased Eurofins Pharma Discovery Services (CEREP diversity panel)

dopamine transporter (h) = target: T14, dopamine transporter (h) (Homo sapiens, UniProt Q01959); test: Cerep binding, antagonist radioligand; conditions: read-out: % Inhibition of Control Specific Binding
T14 construct: purchased Eurofins Pharma Discovery Services (CEREP diversity panel)

beta 2 (h) = target: T15, beta 2 (h) (Homo sapiens, UniProt P07550); test: Cerep binding, agonist radioligand; conditions: read-out: % Inhibition of Control Specific Binding
T15 construct: purchased Eurofins Pharma Discovery Services (CEREP diversity panel)

PDE5 (h) (non-selective) = target: T16, PDE5 (h) (non-selective) (Homo sapiens, UniProt O76074); test: Cerep enzyme and cell-based assays; type: biochemical; conditions: read-out: % Inhibition of Control Values
T16 construct: Eurofins Pharma Discovery Services (CEREP diversity panel, outsourced assay)

AT2 (h) = target: T17, AT2 (h) (Homo sapiens, UniProt P50052); test: Cerep binding, agonist radioligand; conditions: read-out: % Inhibition of Control Specific Binding
T17 construct: purchased Eurofins Pharma Discovery Services (CEREP diversity panel)

opioid (non-selective) = test: Cerep binding, antagonist radioligand; conditions: 5 µM
D4.4 (h) = target: T18, D4.4 (h) (Homo sapiens, UniProt P21917); test: Cerep binding, antagonist radioligand; conditions: read-out: % Inhibition of Control Specific Binding
T18 construct: purchased Eurofins Pharma Discovery Services (CEREP diversity panel)

5-HT transporter (h) = target: T19, 5-HT transporter (h) (Homo sapiens, UniProt P31645); test: Cerep binding, antagonist radioligand; conditions: read-out: % Inhibition of Control Specific Binding
T19 construct: purchased Eurofins Pharma Discovery Services (CEREP diversity panel)

PDE2A1 (h) = target: T20, PDE2A1 (h) (Homo sapiens, UniProt O00408); test: Cerep enzyme and cell-based assays; type: biochemical; conditions: read-out: % Inhibition of Control Values
T20 construct: Eurofins Pharma Discovery Services (CEREP diversity panel, outsourced assay)

Eg5 (h) = target: T21, Eg5 (h) (Homo sapiens, UniProt P52732); test: Cerep enzyme and cell-based assays; type: biochemical; conditions: read-out: % Inhibition of Control Values
T21 construct: Eurofins Pharma Discovery Services (CEREP diversity panel, outsourced assay)

PCP = test: Cerep binding, antagonist radioligand; conditions: 5 µM
H3 (h) = target: T22, H3 (h) (Homo sapiens, UniProt Q9Y5N1); test: Cerep binding, agonist radioligand; conditions: read-out: % Inhibition of Control Specific Binding
T22 construct: purchased Eurofins Pharma Discovery Services (CEREP diversity panel)

[4] = system: COMT (catechol-O-methyl transferase); test: Cerep enzyme and cell-based assays; type: biochemical; conditions: 5 µM
A2A (h) = target: T23, A2A (h) (Homo sapiens, UniProt P29274); test: Cerep binding, agonist radioligand; conditions: read-out: % Inhibition of Control Specific Binding
T23 construct: purchased Eurofins Pharma Discovery Services (CEREP diversity panel)

CCK1 (CCKA) (h) = target: T24, CCK1 (CCKA) (h) (Homo sapiens, UniProt P32238); test: Cerep binding, agonist radioligand; conditions: read-out: % Inhibition of Control Specific Binding
T24 construct: purchased Eurofins Pharma Discovery Services (CEREP diversity panel)

NMDA = test: Cerep binding, antagonist radioligand; conditions: 5 µM
AMPA = test: Cerep binding, agonist radioligand; conditions: 5 µM
I2 = test: Cerep binding, antagonist radioligand; conditions: 5 µM
Erk phosphorylation = test: western blot, Erk phosphorylation in Panc-Tu-I
Experimental: (§1) To examine whether PDEδ inhibition by Deltarasin and Deltazinone 1 downregulates the signal transduction via these pathways, we examined the phosphorylation of extracellular signal regulated kinase (Erk) and S6 Ribosomal Protein (S6P) in the oncogenic KRas-dependent Panc-Tu-1 and KRas-independent PANC-1 cells. […] Cells were lysed with RIPA-buffer (20 mM Tris pH 7.5, 150 mM NaCl, 0.5 mM Na2 EDTA, 1 % sodium deoxycholate, 0.1% sodium dodecyl sulfate, 1% IGEPAL supplemented with Complete Mini EDTA-free protease inhibitor (Roche Applied Science) and 1% phosphatase inhibitor cocktail 2 and 3 (P5726 and P0044, Sigma Aldrich), scraped off after 5 min on ice and centrifuged at 14,000g for 20 min at 4 °C. SDS–polyacrylamide gel electrophoresis was carried out with 10–25 μg of whole-cell lysate from each sample. The gels were blotted onto polyvinylidene difluoride membrane (Millipore) and blocked for 1 h at room temperature. […] Blots were scanned on a LI-COR Odyssey imaging system.
(§2) Western blots were quantified using ImageJ. The background of the blots was subtracted by applying the rolling ball subtraction with a radius of 50 pixels. Afterwards the integrated intensity of the bands was measured.

S6P phosphorylation = test: western blot, S6P phosphorylation in Panc-Tu-I; conditions: for EGF-induced S6P phosphorylation: 1 h, 5 μM Deltarasin or 20 μM Deltazinone 1, 5 min EGF
Experimental: as §1, §2

KV channel = test: Cerep binding, antagonist radioligand; conditions: 5 µM
[5] = system: adenylyl cyclase (activator effect); test: Cerep enzyme and cell-based assays; type: biochemical; conditions: 5 µM
[6] = system: guanylyl cyclase (h) (activator effect); test: Cerep enzyme and cell-based assays; type: biochemical, human; conditions: 5 µM
HDAC3 (h) = target: T25, HDAC3 (h) (Homo sapiens, UniProt O15379); test: Cerep enzyme and cell-based assays; type: biochemical; conditions: read-out: % Inhibition of Control Values
T25 construct: Eurofins Pharma Discovery Services (CEREP diversity panel, outsourced assay)

GABA transporter = test: Cerep binding, antagonist radioligand; conditions: 5 µM
BLT1 (LTB4) (h) = target: T26, BLT1 (LTB4) (h) (Homo sapiens, UniProt Q15722); test: Cerep binding, agonist radioligand; conditions: read-out: % Inhibition of Control Specific Binding
T26 construct: purchased Eurofins Pharma Discovery Services (CEREP diversity panel)

PPARgamma (h) = target: T27, PPARgamma (h) (Homo sapiens, UniProt P37231); test: Cerep binding, agonist radioligand; conditions: read-out: % Inhibition of Control Specific Binding
T27 construct: purchased Eurofins Pharma Discovery Services (CEREP diversity panel)

kainate = test: Cerep binding, agonist radioligand; conditions: 5 µM
[7] = 20 μM, longer incubation times (>3 h)
[8] = 1 h, 5 μM Deltarasin or 20 μM Deltazinone 1, 5 min EGF

T19 sequence (P31645 whole entry): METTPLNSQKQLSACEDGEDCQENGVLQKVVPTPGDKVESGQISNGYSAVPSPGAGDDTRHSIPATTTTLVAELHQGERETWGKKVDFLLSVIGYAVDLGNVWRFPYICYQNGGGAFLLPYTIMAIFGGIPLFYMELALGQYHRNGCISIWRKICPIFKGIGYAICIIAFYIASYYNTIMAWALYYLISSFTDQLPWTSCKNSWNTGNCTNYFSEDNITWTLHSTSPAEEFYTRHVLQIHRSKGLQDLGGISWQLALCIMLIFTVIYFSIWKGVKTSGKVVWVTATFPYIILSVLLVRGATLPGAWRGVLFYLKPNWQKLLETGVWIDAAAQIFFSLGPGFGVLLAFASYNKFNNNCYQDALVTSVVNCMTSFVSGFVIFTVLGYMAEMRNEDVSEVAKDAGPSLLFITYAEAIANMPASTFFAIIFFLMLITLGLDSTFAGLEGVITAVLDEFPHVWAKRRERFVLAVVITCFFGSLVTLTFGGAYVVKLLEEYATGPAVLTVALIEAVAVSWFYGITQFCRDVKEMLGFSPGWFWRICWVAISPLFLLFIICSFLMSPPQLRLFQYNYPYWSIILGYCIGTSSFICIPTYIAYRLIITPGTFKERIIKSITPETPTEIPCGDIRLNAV
T8 sequence (P0DMS8 whole entry): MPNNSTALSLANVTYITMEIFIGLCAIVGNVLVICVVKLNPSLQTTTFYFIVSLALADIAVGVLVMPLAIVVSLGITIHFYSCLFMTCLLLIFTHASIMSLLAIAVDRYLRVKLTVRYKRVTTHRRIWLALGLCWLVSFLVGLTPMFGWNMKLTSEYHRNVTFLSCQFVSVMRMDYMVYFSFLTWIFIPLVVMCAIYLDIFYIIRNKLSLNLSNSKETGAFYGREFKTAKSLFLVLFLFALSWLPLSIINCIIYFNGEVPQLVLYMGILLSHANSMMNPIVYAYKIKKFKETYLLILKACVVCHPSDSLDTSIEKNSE
T14 sequence (Q01959 whole entry): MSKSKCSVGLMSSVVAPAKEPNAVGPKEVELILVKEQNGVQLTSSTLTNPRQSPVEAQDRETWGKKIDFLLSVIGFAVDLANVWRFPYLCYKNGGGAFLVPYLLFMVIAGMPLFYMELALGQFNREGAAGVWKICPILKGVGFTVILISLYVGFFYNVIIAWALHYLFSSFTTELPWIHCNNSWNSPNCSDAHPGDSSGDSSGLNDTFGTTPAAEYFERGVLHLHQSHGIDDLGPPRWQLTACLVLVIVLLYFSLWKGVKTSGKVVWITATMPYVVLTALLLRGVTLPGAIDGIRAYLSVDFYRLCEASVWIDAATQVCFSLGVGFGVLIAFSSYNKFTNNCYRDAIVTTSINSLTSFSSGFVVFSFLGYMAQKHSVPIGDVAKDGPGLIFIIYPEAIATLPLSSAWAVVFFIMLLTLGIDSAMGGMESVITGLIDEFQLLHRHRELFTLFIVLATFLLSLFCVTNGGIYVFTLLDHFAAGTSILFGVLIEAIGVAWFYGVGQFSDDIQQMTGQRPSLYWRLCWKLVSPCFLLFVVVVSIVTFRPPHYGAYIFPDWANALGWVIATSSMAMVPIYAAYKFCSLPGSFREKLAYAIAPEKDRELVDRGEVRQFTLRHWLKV
T18 sequence (P21917 whole entry): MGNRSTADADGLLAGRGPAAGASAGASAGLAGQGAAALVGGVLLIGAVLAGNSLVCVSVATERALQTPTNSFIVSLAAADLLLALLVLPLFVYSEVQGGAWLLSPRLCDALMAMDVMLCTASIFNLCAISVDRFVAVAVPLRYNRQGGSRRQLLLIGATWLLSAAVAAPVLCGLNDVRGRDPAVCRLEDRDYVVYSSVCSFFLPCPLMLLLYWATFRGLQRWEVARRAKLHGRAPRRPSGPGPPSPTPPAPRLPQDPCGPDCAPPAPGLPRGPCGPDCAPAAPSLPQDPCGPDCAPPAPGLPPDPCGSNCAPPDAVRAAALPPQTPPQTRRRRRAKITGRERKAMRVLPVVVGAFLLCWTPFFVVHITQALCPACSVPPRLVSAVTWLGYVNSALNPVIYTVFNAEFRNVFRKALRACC
T1 sequence (P25021 whole entry): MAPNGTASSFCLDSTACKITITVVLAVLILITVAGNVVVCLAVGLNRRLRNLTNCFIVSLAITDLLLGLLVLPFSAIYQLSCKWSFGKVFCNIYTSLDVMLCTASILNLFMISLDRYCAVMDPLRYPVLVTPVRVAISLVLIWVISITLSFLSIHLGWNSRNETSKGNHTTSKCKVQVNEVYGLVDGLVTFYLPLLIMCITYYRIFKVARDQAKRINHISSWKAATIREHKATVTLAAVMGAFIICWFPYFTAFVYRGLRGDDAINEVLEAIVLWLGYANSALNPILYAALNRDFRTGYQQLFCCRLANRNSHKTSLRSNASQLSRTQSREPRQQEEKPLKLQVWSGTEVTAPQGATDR
T17 sequence (P50052 whole entry): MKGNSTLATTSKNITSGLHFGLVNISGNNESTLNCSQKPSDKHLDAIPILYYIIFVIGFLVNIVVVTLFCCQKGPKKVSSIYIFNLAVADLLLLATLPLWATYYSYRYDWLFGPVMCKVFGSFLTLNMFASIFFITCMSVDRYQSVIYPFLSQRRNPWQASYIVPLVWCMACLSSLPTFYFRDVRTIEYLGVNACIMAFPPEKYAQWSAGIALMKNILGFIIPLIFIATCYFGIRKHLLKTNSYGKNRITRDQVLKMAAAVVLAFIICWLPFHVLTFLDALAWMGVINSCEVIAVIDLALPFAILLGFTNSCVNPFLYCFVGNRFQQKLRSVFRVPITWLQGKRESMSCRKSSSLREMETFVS
T27 sequence (P37231 whole entry): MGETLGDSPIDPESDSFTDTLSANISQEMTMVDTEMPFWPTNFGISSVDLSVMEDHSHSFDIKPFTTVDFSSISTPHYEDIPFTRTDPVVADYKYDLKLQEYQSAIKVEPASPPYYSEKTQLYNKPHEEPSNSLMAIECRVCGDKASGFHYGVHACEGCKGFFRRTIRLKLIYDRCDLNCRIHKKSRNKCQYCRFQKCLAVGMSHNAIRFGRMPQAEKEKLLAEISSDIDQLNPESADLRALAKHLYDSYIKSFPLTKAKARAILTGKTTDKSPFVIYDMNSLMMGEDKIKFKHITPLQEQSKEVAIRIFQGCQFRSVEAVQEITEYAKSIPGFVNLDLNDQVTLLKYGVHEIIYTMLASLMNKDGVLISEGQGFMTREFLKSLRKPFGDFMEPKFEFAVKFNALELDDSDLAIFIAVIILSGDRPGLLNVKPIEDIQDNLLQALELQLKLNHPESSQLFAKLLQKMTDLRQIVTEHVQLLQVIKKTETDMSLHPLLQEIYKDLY
T10 sequence (P43116 whole entry): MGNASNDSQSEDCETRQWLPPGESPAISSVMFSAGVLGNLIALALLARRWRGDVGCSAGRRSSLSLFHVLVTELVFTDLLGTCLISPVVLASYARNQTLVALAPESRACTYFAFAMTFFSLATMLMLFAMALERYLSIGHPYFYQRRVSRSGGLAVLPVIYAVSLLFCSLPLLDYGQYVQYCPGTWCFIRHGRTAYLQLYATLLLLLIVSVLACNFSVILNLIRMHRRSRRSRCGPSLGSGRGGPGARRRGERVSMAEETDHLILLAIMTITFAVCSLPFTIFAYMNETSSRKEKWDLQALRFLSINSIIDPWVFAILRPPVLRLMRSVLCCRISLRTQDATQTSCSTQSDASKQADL
T9 sequence (P48039 whole entry): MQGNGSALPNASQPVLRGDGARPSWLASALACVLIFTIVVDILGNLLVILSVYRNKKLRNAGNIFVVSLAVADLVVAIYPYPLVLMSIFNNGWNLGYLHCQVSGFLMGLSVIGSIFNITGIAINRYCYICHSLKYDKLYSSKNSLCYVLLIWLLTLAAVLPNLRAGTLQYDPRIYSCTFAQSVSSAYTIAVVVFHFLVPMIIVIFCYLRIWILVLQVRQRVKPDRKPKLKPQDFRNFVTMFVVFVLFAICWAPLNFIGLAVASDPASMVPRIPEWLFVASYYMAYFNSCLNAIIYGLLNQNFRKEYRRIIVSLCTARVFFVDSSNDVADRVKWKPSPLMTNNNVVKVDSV
T5 sequence (Q08499 303-809 limits assumed): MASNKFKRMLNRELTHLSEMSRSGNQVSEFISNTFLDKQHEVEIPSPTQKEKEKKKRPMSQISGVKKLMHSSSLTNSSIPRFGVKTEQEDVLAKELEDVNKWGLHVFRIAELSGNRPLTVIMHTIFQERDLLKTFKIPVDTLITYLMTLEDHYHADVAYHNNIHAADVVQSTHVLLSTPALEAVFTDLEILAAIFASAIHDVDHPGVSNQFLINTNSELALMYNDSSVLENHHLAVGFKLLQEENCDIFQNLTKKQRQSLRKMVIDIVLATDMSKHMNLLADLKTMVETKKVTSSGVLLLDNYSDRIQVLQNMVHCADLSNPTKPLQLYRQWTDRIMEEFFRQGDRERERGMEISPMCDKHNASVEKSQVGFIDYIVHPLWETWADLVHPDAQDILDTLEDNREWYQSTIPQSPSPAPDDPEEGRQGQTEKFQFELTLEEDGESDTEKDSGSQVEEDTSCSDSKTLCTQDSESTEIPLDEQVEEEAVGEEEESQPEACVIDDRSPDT
T22 sequence (Q9Y5N1 whole entry): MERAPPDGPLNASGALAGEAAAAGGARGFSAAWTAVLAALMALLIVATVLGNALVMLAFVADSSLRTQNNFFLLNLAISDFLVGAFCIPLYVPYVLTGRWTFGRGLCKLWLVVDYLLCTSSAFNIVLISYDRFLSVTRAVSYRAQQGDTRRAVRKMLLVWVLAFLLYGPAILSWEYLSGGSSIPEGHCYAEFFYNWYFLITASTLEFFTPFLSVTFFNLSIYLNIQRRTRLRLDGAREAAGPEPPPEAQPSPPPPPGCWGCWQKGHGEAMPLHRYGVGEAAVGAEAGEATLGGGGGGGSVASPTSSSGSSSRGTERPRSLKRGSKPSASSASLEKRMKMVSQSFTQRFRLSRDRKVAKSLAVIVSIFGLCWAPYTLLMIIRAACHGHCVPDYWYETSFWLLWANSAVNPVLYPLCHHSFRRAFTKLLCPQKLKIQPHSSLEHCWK

Cc1ccc(-n2nc3c(=O)n(CCCC(=O)NCC(C)c4ccccc4)nc(C)c3c2C)cc1 (stereo not drawn) [2k]
% Inhibition of Control Specific Binding (5-HT (non-selective)): -25% | % Inhibition of Control Specific Binding [1]: -4% | % Inhibition of Control Specific Binding (Y (non-selective)): -19% | % Inhibition of Control Specific Binding [2]: -2% | inhibition at 5 µM (H2 (h)): 5% | % Inhibition of Control Specific Binding (Na+ channel (site 2)): 4% | inhibition at 5 µM (B1 (h)): -4% | inhibition at 5 µM (CRF1 (h)): -43% | inhibition at 5 µM (CB2 (h)): 12% | inhibition at 5 µM (PDE4D2 (h)): 3% | inhibition at 5 µM (CB1 (h)): -12% | inhibition at 5 µM (GR (h)): -9% | inhibition at 5 µM (A3 (h)): 59% | % Inhibition of Control Specific Binding [3]: -23% | % Inhibition of Control Specific Binding (alpha 2 (non-selective)): 3% | inhibition at 5 µM (MT1 (ML1A) (h)): 22% | inhibition at 5 µM (EP2 (h)): 6% | inhibition at 5 µM (PKCalpha (h)): 7% | inhibition at 5 µM (PDE1B (h)): 7% | inhibition at 5 µM (D3 (h)): 18% | inhibition at 5 µM (dopamine transporter (h)): 17% | inhibition at 5 µM (beta 2 (h)): 9% | inhibition at 5 µM (PDE5 (h) (non-selective)): 3% | inhibition at 5 µM (AT2 (h)): 10% | % Inhibition of Control Specific Binding (opioid (non-selective)): 42% | inhibition at 5 µM (D4.4 (h)): 2% | inhibition at 5 µM (5-HT transporter (h)): -8% | inhibition at 5 µM (PDE2A1 (h)): 2% | inhibition at 5 µM (Eg5 (h)): 3% | % Inhibition of Control Specific Binding (PCP): -8% | inhibition at 5 µM (H3 (h)): -10% | % Inhibition of Control Values [4]: 11% | inhibition at 5 µM (A2A (h)): -6% | inhibition at 5 µM (CCK1 (CCKA) (h)): 22% | % Inhibition of Control Specific Binding (NMDA): 1% | % Inhibition of Control Specific Binding (AMPA): 2% | % Inhibition of Control Specific Binding (I2): 39% | EGF-induced Erk phosphorylation (Erk phosphorylation; [7]): reduced | EGF-induced Erk phosphorylation (Erk phosphorylation; [8]): did not significantly affect | S6P phosphorylation (S6P phosphorylation; [7]): further decreased | EGF-induced S6P phosphorylation (S6P phosphorylation): reduced S6P phosphorylation | % Inhibition of Control Specific Binding (KV channel): -8% | % Inhibition of Control Values [5]: 2% | % Inhibition of Control Values [6]: 3% | inhibition at 5 µM (HDAC3 (h)): 0% | % Inhibition of Control Specific Binding (GABA transporter): -1% | inhibition at 5 µM (BLT1 (LTB4) (h)): 16% | inhibition at 5 µM (PPARgamma (h)): -14% | % Inhibition of Control Specific Binding (kainate): -6%

c1ccc(Cn2c(-c3ccc(OC[C@H](C4CCNCC4)n4c(-c5ccccc5)nc5ccccc54)cc3)nc3ccccc32)cc1 [Deltarasin, reference compound]
% Inhibition of Control Specific Binding (5-HT (non-selective)): -1% | % Inhibition of Control Specific Binding [1]: 61% | % Inhibition of Control Specific Binding (Y (non-selective)): 10% | % Inhibition of Control Specific Binding [2]: 87% | inhibition at 5 µM (H2 (h)): 38% | % Inhibition of Control Specific Binding (Na+ channel (site 2)): 83% | inhibition at 5 µM (B1 (h)): 3% | inhibition at 5 µM (CRF1 (h)): 34% | inhibition at 5 µM (CB2 (h)): 24% | inhibition at 5 µM (PDE4D2 (h)): 7% | inhibition at 5 µM (CB1 (h)): 7% | inhibition at 5 µM (GR (h)): 40% | inhibition at 5 µM (A3 (h)): 70% | % Inhibition of Control Specific Binding [3]: 54% | % Inhibition of Control Specific Binding (alpha 2 (non-selective)): 1% | inhibition at 5 µM (MT1 (ML1A) (h)): 28% | inhibition at 5 µM (EP2 (h)): 28% | inhibition at 5 µM (PKCalpha (h)): 66% | inhibition at 5 µM (PDE1B (h)): 12% | inhibition at 5 µM (D3 (h)): 93% | inhibition at 5 µM (dopamine transporter (h)): 65% | inhibition at 5 µM (beta 2 (h)): 7% | inhibition at 5 µM (PDE5 (h) (non-selective)): 92% | inhibition at 5 µM (AT2 (h)): 49% | % Inhibition of Control Specific Binding (opioid (non-selective)): 12% | inhibition at 5 µM (D4.4 (h)): 0% | inhibition at 5 µM (5-HT transporter (h)): 39% | inhibition at 5 µM (PDE2A1 (h)): 3% | inhibition at 5 µM (Eg5 (h)): 9% | % Inhibition of Control Specific Binding (PCP): -6% | inhibition at 5 µM (H3 (h)): -2% | % Inhibition of Control Values [4]: 4% | inhibition at 5 µM (A2A (h)): 28% | inhibition at 5 µM (CCK1 (CCKA) (h)): 58% | % Inhibition of Control Specific Binding (NMDA): 11% | % Inhibition of Control Specific Binding (AMPA): 17% | % Inhibition of Control Specific Binding (I2): 19% | EGF-induced Erk phosphorylation (Erk phosphorylation; [8]): reduced | EGF-induced S6P phosphorylation (S6P phosphorylation): reduced in both lines | % Inhibition of Control Specific Binding (KV channel): -2% | % Inhibition of Control Values [5]: 2% | % Inhibition of Control Values [6]: 0% | inhibition at 5 µM (HDAC3 (h)): 23% | % Inhibition of Control Specific Binding (GABA transporter): 20% | inhibition at 5 µM (BLT1 (LTB4) (h)): 19% | inhibition at 5 µM (PPARgamma (h)): 21% | % Inhibition of Control Specific Binding (kainate): 14%
